Assay results: patent publication US20250353833A1, “DPP9 BINDING COMPOUNDS” (UNIVERSITEIT ANTWERPEN, priority 2022, published 2025)
Where a name gives a salt, the structure may show the parent alone. Read-outs that look alike come from different tables or passages of the source.

Experiments:
DPP8 = DPP8 (Homo sapiens (Human), UniProt Q6V1X1); test: DPP8 enzyme inhibition, IC50 measurement (Ala-Pro-pNA release); type: biochemical; details: Table 3; mean ± SD (n = 3); read-out: DPP8 IC50 ± SD
Procedure: (§1) IC50 measurements. […] The Magellan software was used to process the data, which was then fitted using a non-linear fit model in GraFit 7. […] As a blank, the assay buffer was used instead of the enzyme. Screening measurements were carried out in duplo and IC50 values were determined in triplo with at least eight different inhibitor concentrations as described by Van Goethem et al.

DPP9 = DPP9 (Homo sapiens (Human), UniProt Q86TI2); test: DPP9 enzyme inhibition, IC50 measurement (Ala-Pro-pNA release); type: biochemical; details: for SI DPP9/8 / SI DPP9/DPP8: selectivity index; for SI DPP9/8: DPP8 IC50 over DPP9 IC50; for SI DPP9/DPP8: Table 4
Chain of DPP9 (Q86TI2 whole entry): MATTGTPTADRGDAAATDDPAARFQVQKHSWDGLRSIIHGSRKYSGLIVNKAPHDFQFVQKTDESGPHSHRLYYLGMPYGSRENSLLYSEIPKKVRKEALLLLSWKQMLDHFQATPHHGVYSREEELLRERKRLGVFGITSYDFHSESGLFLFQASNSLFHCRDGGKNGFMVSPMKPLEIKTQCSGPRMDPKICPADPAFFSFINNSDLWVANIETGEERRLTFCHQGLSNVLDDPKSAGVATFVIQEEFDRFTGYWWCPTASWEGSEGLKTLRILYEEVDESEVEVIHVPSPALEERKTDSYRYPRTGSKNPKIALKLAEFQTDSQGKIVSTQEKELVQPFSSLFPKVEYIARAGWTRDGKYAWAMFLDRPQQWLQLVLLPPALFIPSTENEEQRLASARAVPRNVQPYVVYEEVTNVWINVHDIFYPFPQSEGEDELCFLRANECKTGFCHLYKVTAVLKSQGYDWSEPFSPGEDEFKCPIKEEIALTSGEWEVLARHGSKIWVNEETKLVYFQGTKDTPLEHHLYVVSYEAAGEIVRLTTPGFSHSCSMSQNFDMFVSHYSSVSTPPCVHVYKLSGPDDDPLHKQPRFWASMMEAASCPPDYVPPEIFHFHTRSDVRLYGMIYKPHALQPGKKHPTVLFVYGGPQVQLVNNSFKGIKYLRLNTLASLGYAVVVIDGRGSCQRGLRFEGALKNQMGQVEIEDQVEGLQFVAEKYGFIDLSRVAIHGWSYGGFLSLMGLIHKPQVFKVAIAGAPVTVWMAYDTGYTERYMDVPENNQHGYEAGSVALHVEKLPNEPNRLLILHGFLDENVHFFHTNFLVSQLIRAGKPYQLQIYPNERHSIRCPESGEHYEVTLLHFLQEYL
Procedure: DPP4 was purified from human seminal plasma as described previously.^[3]
as §1

[1] = Table 3, mean ± SD (n = 3), read-out: DPP9 IC50 ± SD

Chain of DPP8 (Q6V1X1 whole entry): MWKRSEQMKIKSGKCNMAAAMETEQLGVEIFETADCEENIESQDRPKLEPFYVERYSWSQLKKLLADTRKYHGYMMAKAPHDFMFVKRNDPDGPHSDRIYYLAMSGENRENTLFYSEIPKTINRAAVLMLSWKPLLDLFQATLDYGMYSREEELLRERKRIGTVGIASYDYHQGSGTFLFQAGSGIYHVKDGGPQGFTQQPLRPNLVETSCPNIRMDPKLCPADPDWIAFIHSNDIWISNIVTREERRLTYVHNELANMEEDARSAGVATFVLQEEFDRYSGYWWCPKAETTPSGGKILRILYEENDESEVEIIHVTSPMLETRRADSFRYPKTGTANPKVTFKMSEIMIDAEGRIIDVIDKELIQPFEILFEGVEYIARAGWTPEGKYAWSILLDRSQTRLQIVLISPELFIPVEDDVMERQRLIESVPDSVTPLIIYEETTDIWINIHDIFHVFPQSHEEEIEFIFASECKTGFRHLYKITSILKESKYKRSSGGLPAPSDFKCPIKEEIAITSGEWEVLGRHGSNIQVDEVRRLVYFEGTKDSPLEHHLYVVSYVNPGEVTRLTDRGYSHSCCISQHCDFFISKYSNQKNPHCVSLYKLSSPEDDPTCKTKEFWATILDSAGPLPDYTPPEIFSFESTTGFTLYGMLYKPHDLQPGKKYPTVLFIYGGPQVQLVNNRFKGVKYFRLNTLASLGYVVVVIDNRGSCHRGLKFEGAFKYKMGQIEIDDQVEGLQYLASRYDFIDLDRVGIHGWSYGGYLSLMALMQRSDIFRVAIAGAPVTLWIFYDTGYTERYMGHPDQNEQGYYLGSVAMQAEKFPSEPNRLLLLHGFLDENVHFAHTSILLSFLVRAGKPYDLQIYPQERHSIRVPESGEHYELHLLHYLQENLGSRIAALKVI

| SMILES | SI DPP9/DPP8 (DPP9) | also measured |
| --- | --- | --- |
| O=C(O)[C@@H]1CCCN1C(=O)OC12CC3CC(CC(NCC(=O)N4Cc5ccc(F)cc5C4)(C3)C1)C2 |  | IC50 (DPP8): 920 ± 121 nM; IC50 (DPP9; [1]): 8.03 nM; SI DPP9/8 (DPP9; Table 3): 114.6 |
| O=C(N[C@@H](Cc1c[nH]c2ccccc12)C(=O)O)OC12CC3CC(CC(NCC(=O)N4Cc5ccc(F)cc5C4)(C3)C1)C2 |  | IC50 (DPP8): 164 nM; IC50 (DPP9; [1]): 6.55 nM; SI DPP9/8 (DPP9; Table 3): 25.0 |
| N#C[C@@H]1[C@@H]2C[C@@H]2CN1C(=O)CNC12CC3CC(CC(O)(C3)C1)C2 [Compound 5l, (1R,2S,5S)-3-((3-hydroxyadamantan-1-yl)glycyl)-3-azabicyclo[3.1.0]hexane-2-carbonitrile] |  | DPP9/8 selectivity index (DPP9): > 10 |
| CCCCNC12CC3CC(C1)CC(NCC(=O)N1Cc4ccccc4C1)(C3)C2 [Compound 25, 2-((3-(butylamino)adamantan-1-yl)amino)-1-(isoindolin-2-yl)ethan-1-one 2,2,2-trifluoroacetate] |  | IC50 (DPP9; [1]): 477 ± 28 nM; SI DPP9/8 (DPP9; Table 3): >21 |
| Cl.O=C(NC12CC3CC(CC(NCC(=O)N4Cc5ccc(F)cc5C4)(C3)C1)C2)c1ccc(-c2ccccc2)cc1 [Compound 87, N-((1s,3r,5R,7S)-3-((2-(5-fluoroisoindolin-2-yl)-2-oxoethyl)amino)adamantan-1-yl)-[1,1′-biphenyl]-4-carboxamide hydrochloride] | 54 |  |
| Cl.O=C(NC12CC3CC(CC(NCC(=O)N4Cc5ccc(F)cc5C4)(C3)C1)C2)c1ccc(-c2ccccc2)nc1 [Compound 89, N-((1s,3r,5R,7S)-3-((2-(5-fluoroisoindolin-2-yl)-2-oxoethyl)amino)adamantan-1-yl)-6-phenylnicotinamide hydrochloride] | 28 |  |
| Cl.O=C(NC12CC3CC(CC(NCC(=O)N4Cc5ccc(F)cc5C4)(C3)C1)C2)c1ccc(-c2cccs2)cc1 [Compound 92, N-((1s,3r,5R,7S)-3-((2-(5-fluoroisoindolin-2-yl)-2-oxoethyl)amino)adamantan-1-yl)-4-(thiophen-2-yl)benzamide hydrochloride] | 27 |  |
| Cl.O=C(NC12CC3CC(CC(NCC(=O)N4Cc5ccc(F)cc5C4)(C3)C1)C2)c1ccc(-c2ccc(F)cc2)cc1 [Compound 93, 4′-fluoro-N-((1s,3r,5R,7S)-3-((2-(5-fluoroisoindolin-2-yl)-2-oxoethyl)amino)adamantan-1-yl)-[1,1′-biphenyl]-4-carboxamide hydrochloride] | 59 |  |
| Cl.O=C(NC12CC3CC(CC(NCC(=O)N4Cc5ccc(F)cc5C4)(C3)C1)C2)c1ccc(-c2ccccc2F)cc1 [Compound 94, 2′-fluoro-N-((1s,3r,5R,7S)-3-((2-(5-fluoroisoindolin-2-yl)-2-oxoethyl)amino)adamantan-1-yl)-[1,1′-biphenyl]-4-carboxamide hydrochloride] | 26 |  |
| Cl.N#Cc1ccc(C(=O)NC23CC4CC(CC(NCC(=O)N5Cc6ccc(F)cc6C5)(C4)C2)C3)cc1 [Compound 96, 4-cyano-N-((1s,3r,5R,7S)-3-((2-(5-fluoroisoindolin-2-yl)-2-oxoethyl)amino)adamantan-1-yl)benzamide hydrochloride] | 12 |  |
| Cl.O=C(NC12CC3CC(CC(NCC(=O)N4Cc5ccc(F)cc5C4)(C3)C1)C2)c1ccc(-c2ccccc2)s1 [Compound 97, N-((1s,3r,5R,7S)-3-((2-(5-fluoroisoindolin-2-yl)-2-oxoethyl)amino)adamantan-1-yl)-5-phenylthiophene-2-carboxamide hydrochloride] | 11 |  |
| Cl.O=C(NC12CC3CC(CC(NCC(=O)N4Cc5ccc(F)cc5C4)(C3)C1)C2)c1cnc2ccccc2c1 [Compound 99, N-((1s,3r,5R,7S)-3-((2-(5-fluoroisoindolin-2-yl)-2-oxoethyl)amino)adamantan-1-yl)quinoline-3-carboxamide hydrochloride] | 13 |  |
| Cl.O=C(NC12CC3CC(CC(NCC(=O)N4Cc5ccc(F)cc5C4)(C3)C1)C2)c1ccc(-c2cccs2)nc1 [Compound 100, N-((1s,3r,5R,7S)-3-((2-(5-fluoroisoindolin-2-yl)-2-oxoethyl)amino)adamantan-1-yl)-6-(thiophen-2-yl)nicotinamide hydrochloride] | 22 |  |
| Cl.O=C(NC12CC3CC(CC(NCC(=O)N4Cc5ccc(F)cc5C4)(C3)C1)C2)c1cccc(-c2ccccc2)c1 [Compound 101, N-((1s,3r,5R,7S)-3-((2-(5-fluoroisoindolin-2-yl)-2-oxoethyl)amino)adamantan-1-yl)-[1,1′-biphenyl]-3-carboxamide hydrochloride] | 4 |  |
| Cl.O=C(CNC12CC3CC(C1)CC(NS(=O)(=O)c1ccc(-c4ccccc4)cc1)(C3)C2)N1Cc2ccc(F)cc2C1 [Compound 102, N-((1s,3r,5R,7S)-3-((2-(5-fluoroisoindolin-2-yl)-2-oxoethyl)amino)adamantan-1-yl)-[1,1′-biphenyl]-4-sulfonamide hydrochloride] | 4 |  |
| COC(=O)c1csc(-c2ccc(C(=O)NC34CC5CC(CC(NCC(=O)N6Cc7ccc(F)cc7C6)(C5)C3)C4)cc2)c1.Cl [Compound 103, Methyl 5-(4-((-3-((2-(5-fluoroisoindolin-2-yl)-2-oxoethyl)amino)adamantan-1-yl)carbamoyl)phenyl)thiophene-3-carboxylate hydrochloride] | 25 |  |
| COC(=O)c1ccc(-c2ccc(C(=O)NC34CC5CC(CC(NCC(=O)N6Cc7ccc(F)cc7C6)(C5)C3)C4)cc2)cc1 [Compound 104, Methyl 4′-((-3-((2-(5-fluoroisoindolin-2-yl)-2-oxoethyl)amino)adamantan-1-yl)carbamoyl)-[1,1′-biphenyl]-4-carboxylate hydrochloride] | 46 | IC50 (DPP9; read-out: IC50 DPP9): 1 nM |
| Cl.O=C(NC12CC3CC(CC(NCC(=O)N4Cc5ccc(F)cc5C4)(C3)C1)C2)c1ccc(-c2ccc(O)cc2)cc1 [Compound 105, N-(-3-((2-(5-fluoroisoindolin-2-yl)-2-oxoethyl)amino)adamantan-1-yl)-4′-hydroxy-[1,1′-biphenyl]-4-carboxamide hydrochloride] | 27 |  |
| O=C(CNC12CC3CC(C1)CC(Nc1ccc(-c4ccccc4)nc1)(C3)C2)N1Cc2ccc(F)cc2C1 [Compound 109, 1-(5-fluoroisoindolin-2-yl)-2-((-3-((6-phenylpyridin-3-yl)amino)adamantan-1-yl)amino)ethan-1-one dihydrochloride] | 2 |  |
| O=C(CCCCC1SCC2NC(=O)NC21)NCCOCCOCCOCCNC(=O)NC12CC3CC(CC(NCC(=O)N4Cc5cc(F)c(F)cc5C4)(C3)C1)C2 (stereo not drawn) [Compound 115, N-(1-((3-((2-(5,6-difluoroisoindolin-2-yl)-2-oxoethyl)amino)adamantan-1-yl)amino)-1-oxo-5,8,11-trioxa-2-azatridecan-13-yl)-5-(2-oxohexahydro-1H thieno[3,4-d]imidazol-4-yl)pentanamide] | 7 |  |
| CC[N+]1=C(/C=C/C=C2/N(CCCCCC(=O)NC34CC5CC(CC(NCC(=O)N6Cc7ccc(F)cc7C6)(C5)C3)C4)c3ccc(S(=O)(=O)O)cc3C2(C)C)C(C)(C)c2cc(S(=O)(=O)[O-])ccc21 [Compound 120, 1-ethyl-2-((E)-3-((E)-1-(6-((-3-((2-(5-fluoroisoindolin-2-yl)-2-oxoethyl)amino)adamantan-1-yl)amino)-6-oxohexyl)-3,3-dimethyl-5-sulfoindolin-2-ylidene)prop-1-en-1-yl)-3,3-dimethyl-3H-indol-1-ium-5-sulfonate] | 21 |  |
| Cc1ncsc1-c1ccc(CNC(=O)[C@@H]2C[C@@H](O)CN2C(=O)[C@@H](NC(=O)c2csc(-c3ccc(C(=O)NC45CC6CC(CC(NCC(=O)N7Cc8ccc(F)cc8C7)(C6)C4)C5)cc3)c2)C(C)(C)C)cc1 [Compound 122, (2S,4R)-1-((2S)-2-(5-(4-((3-((2-(5-fluoroisoindolin-2-yl)-2-oxoethyl)amino)adamantan-1-yl)carbamoyl)phenyl)thiophene-3-carboxamido)-3,3-dimethylbutanoyl)-4-hydroxy-N-(4-(4-methylthiazol-5-yl)benzyl)pyrrolidine-2-carboxamide] | 11 |  |
| Cc1ncsc1-c1ccc(CNC(=O)[C@@H]2C[C@@H](O)CN2C(=O)[C@@H](NC(=O)c2ccc(-c3ccc(C(=O)NC45CC6CC(CC(NCC(=O)N7Cc8ccc(F)cc8C7)(C6)C4)C5)cc3)cc2)C(C)(C)C)cc1 [Compound 123, N4-(3-((2-(5-fluoroisoindolin-2-yl)-2-oxoethyl)amino)adamantan-1-yl)-N4′-((S)-1-((2S,4R)-4-hydroxy-2-((4-(4-methylthiazol-5-yl)benzyl)carbamoyl)pyrrolidin-1-yl)-3,3-dimethyl-1-oxobutan-2-yl)-[1,1′-biphenyl]-4,4′-dicarboxamide] | 3 |  |
| Cc1ncsc1-c1ccc(CNC(=O)[C@@H]2C[C@@H](O)CN2C(=O)[C@@H](NC(=O)CCOCCOc2ccc(-c3ccc(C(=O)NC45CC6CC(CC(NCC(=O)N7Cc8ccc(F)cc8C7)(C6)C4)C5)cc3)cc2)C(C)(C)C)cc1 [Compound 125, (2S,4R)-1-((2S)-2-(3-(2-((4′-((3-((2-(5-fluoroisoindolin-2-yl)-2-oxoethyl)amino)adamantan-1-yl)carbamoyl)-[1,1′-biphenyl]-4-yl)oxy)ethoxy)propanamido)-3,3-dimethylbutanoyl)-4-hydroxy-N-(4-(4-methylthiazol-5-yl)benzyl)pyrrolidine-2-carboxamide] | 9 |  |
